In the PolyMetriX glass transition set one finds glass transition temperature data, which are given here for 68 molecules.

In the case of `*/C(=C/c1cc(OC)c(/C=C(\c2ccc(F)cc2)c2ccc3cc(*)ccc3c2)cc1OC)c1ccc(F)cc1` (repeat unit), the glass transition temperature worked out at 208.00 °C.
The value for `*/C(=C/c1cc(OC)c(/C=C(\c2ccccc2)c2ccc3cc(*)ccc3c2)cc1OC)c1ccccc1` (repeat unit) was 198.00 °C.
The value for `*/C(=C/c1ccc(/C=C(\c2ccccc2)c2ccc(-c3ccc(*)cc3)cc2)cc1)c1ccccc1` (repeat unit) was 220.00 °C; that for `*/C(C#N)=C/c1cc(OCCCCCCCC)c(/C=C(\C#N)c2cc(OCCCCCCCC)c(*)cc2OC)cc1OC` (repeat unit) was 174.00 °C; that for `*/C(C#N)=C/c1cc(OCCCCCCCCCC)c(/C=C(\C#N)c2cc(OCCCCCCCCCC)c(*)cc2OC)cc1OC` (repeat unit) was 198.00 °C.
The figure for `*/C=C(\C#N)C(=O)OCCCCCCCCCCOC(=O)/C(C#N)=C/c1ccc2c(c1)c1cc(*)ccc1n2CCCCCCCCCCCCCC` (repeat unit) is 35.00 °C; for `*/C=C/C(*)(C)C` (repeat unit) it is -9.00 °C.
For the molecule `*/C=C/C(*)(C)c1ccccc1` (repeat unit), the glass transition temperature came to 52.00 °C.
The value for `*/C=C/C(C(=O)OCc1ccccc1)C(*)C(=O)OCc1ccccc1` (repeat unit) was 21.00 °C; that for `*/C=C/C(C)(C(=O)OC)C(*)C` (repeat unit) was 34.00 °C.
The molecule `*/C=C/C(C)C(*)C(=O)OC12CC3CC(CC(C3)C1)C2` (repeat unit) came in with a glass transition temperature of 115.00 °C.
The molecule `*/C=C/C(C)C(*)C(=O)OCCCN(C)c1ccc(N(C)C)cc1` (repeat unit) gave a glass transition temperature of 11.50 °C.
The figure for `*/C=C/C(C)C(*)C(=O)OCCN(C)c1ccc(N(C)C)cc1` (repeat unit) is 20.50 °C; for `*/C=C/C(COCc1ccccc1)C(*)COCc1ccccc1` (repeat unit) it is -4.00 °C; for `*/C=C/C1=C(*)CC(C(=O)OCC)(C(=O)OCC)C1` (repeat unit) it is 27.7 °C.
In the case of `*/C=C/C1CC(*)C(C(=O)OC(C)(C)C)C1C(=O)OC(C)(C)C` (repeat unit), the glass transition temperature was determined as 83.40 °C.
Molecule `*/C=C/C1CC(*)C(C(=O)Oc2ccccc2)C1C(=O)Oc1ccccc1` (repeat unit) registered a glass transition temperature of 96.50 °C.
In the case of `*/C=C/CCCCCC*` (repeat unit), the glass transition temperature is -78.00 °C.
The value for `*/C=C/CCCCCCCCCC*` (repeat unit) was -53.00 °C.
With `*C(=O)c1ccc2c(c1)C(=O)N(CC1(C)CC(N3C(=O)c4ccc(*)cc4C3=O)CC(C)(C)C1)C2=O` (repeat unit), the glass transition temperature was 275.00 °C.
For the molecule `*C/C=C/COC(=O)C(Cc1ccccc1)NC(=O)/C=C/C(=O)NC(Cc1ccccc1)C(=O)O*` (repeat unit), the glass transition temperature was found to be 109.00 °C.
The value for `*C1C(*)C2CC1C(C(=O)OCC1CC3CCC1C3)C2C(=O)OCC1CC2CCC1C2` (repeat unit) was 320.00 °C; that for `*C1C(*)C2CC1C(C(=O)OCCC1CC3CCC1C3)C2C(=O)OCCC1CC2CCC1C2` (repeat unit) was 260.00 °C.
The value for `*C1C(*)C2CC1C(C(=O)OCCCc1ccccc1)C2C(=O)OCCCc1ccccc1` (repeat unit) was 200.00 °C; that for `*C1C(*)C2CC1C(C(=O)OCCc1ccccc1)C2C(=O)OCCc1ccccc1` (repeat unit) was 254.00 °C.
`*C1C(=O)N(C(C)(C)C)C(=O)C1*` (repeat unit): the glass transition temperature amounted to 195.00 °C.
For `*C1C(=O)N(C(C)CC)C(=O)C1*` (repeat unit), the glass transition temperature stood at 205.00 °C.
On to `*C1C(=O)N(CCCOc2ccc(-c3ccc(C#N)cc3)cc2)C(=O)C1*` (repeat unit), for which the glass transition temperature came out at 130.00 °C.
Take `*C1C(=O)N(CCOc2ccc(-c3ccc(C#N)cc3)cc2)C(=O)C1*` (repeat unit): the glass transition temperature amounted to 150.00 °C.
Molecule `*C1C(=O)N(c2c(CC)cccc2CC)C(=O)C1*` (repeat unit) showed a glass transition temperature of 288.00 °C.
The molecule `*C1C(=O)N(c2cc(Br)c(O[Si](C)(C)C(C)(C)C)c(Br)c2)C(=O)C1*` (repeat unit) had a glass transition temperature of 164.00 °C.
The figure for `*C1C(=O)N(c2cc(Br)c(O[Si](CC)(CC)CC)c(Br)c2)C(=O)C1*` (repeat unit) is 160.00 °C; for `*C1C(=O)N(c2cc(Br)c(O[Si](c3ccccc3)(c3ccccc3)c3ccccc3)c(Br)c2)C(=O)C1*` (repeat unit) it is 179.00 °C; for `*C1C(=O)N(c2ccc(O[Si](C)(C)C(C)(C)C)cc2)C(=O)C1*` (repeat unit) it is 169.00 °C.
Molecule `*C1C(=O)N(c2ccc(O[Si](c3ccccc3)(c3ccccc3)c3ccccc3)cc2)C(=O)C1*` (repeat unit) came in with a glass transition temperature of 183.00 °C.
Molecule `*C1C(=O)N(c2ccccc2C(=O)OCC)C(=O)C1*` (repeat unit) showed a glass transition temperature of 230.00 °C.
The figure for `*C1C(=O)N(c2ccccc2C(=O)OCCCC)C(=O)C1*` (repeat unit) is 181.00 °C.
For `*C1C2CC(C1*)C([Si](C)(C)C)C2` (repeat unit), the glass transition temperature amounted to 303.00 °C.
Take `*C1C2CC(CCCCCCCCC(=O)OCC)C(C2)C1*` (repeat unit): the glass transition temperature is 134.00 °C.
The figure for `*C1CCC(CC2CCC(N3C(=O)C4C5C=CC(C6C(=O)N(*)C(=O)C56)C4C3=O)CC2)CC1` (repeat unit) is 239.00 °C; for `*C1CCCC(S(*)(=O)=O)C1` (repeat unit) it is 108.00 °C.
Molecule `*C1CCCCC1S(*)(=O)=O` (repeat unit) gave a glass transition temperature of 77.00 °C.
The figure for `*C1Cc2ccccc2C1*` (repeat unit) is 188.50 °C; for `*C1OC(C(F)(F)F)(C(F)(F)F)OC1(*)F` (repeat unit) it is 256.00 °C; for `*C1OCOC(C(*)(F)F)C1(F)F` (repeat unit) it is 125.00 °C.
For `*C1Oc2ccccc2C1*` (repeat unit), the glass transition temperature is 65.20 °C.
In turn, `*CC(=O)c1ccc(Oc2ccc(C(=O)COc3ccc(/C=C4\CCC/C(=C\c5ccc(O*)c(OC)c5)C4=O)cc3OC)cc2)cc1` (repeat unit) registered a glass transition temperature of 211.8 °C.
As for `*CC(O)COC(=O)CCCCC(=O)OCC(O)COc1ccc(/C=C(\C)c2ccc(O*)cc2)cc1` (repeat unit), the glass transition temperature is 33.00 °C.
The value for `*CC1(C)CC(N2C(=O)c3ccc(-c4ccc5c(c4)C(=O)N(*)C5=O)cc3C2=O)CC(C)(C)C1` (repeat unit) was 311.00 °C; that for `*CC1(C)CC(N2C(=O)c3ccc(Oc4ccc5c(c4)C(=O)N(*)C5=O)cc3C2=O)CC(C)(C)C1` (repeat unit) was 266.00 °C; that for `*CCC/C=C(/*)c1ccc(Cl)cc1` (repeat unit) was 16.00 °C.
Molecule `*CCCCCCCCCCOc1ccc(/C=C2\CCC/C(=C\c3ccc(O*)c(OC)c3)C2=O)cc1OC` (repeat unit) had a glass transition temperature of 60.00 °C.
The figure for `*CCCCCCCCOc1c(OC)cc(/C=C2\CCC/C(=C\c3cc(OC)c(O*)c(OC)c3)C2=O)cc1OC` (repeat unit) is 62.00 °C.
Molecule `*CCCCCCCCOc1ccc(/C=C2\CC/C(=C\c3ccc(OCCCCCCCCOP(=O)(O*)OC)c(OC)c3)C2=O)cc1OC` (repeat unit) displayed a glass transition temperature of 73.00 °C.
The figure for `*CCCCCCOC(=O)C(Cc1ccccc1)NC(=O)/C=C/C(=O)NC(Cc1ccccc1)C(=O)O*` (repeat unit) is 92.00 °C; for `*CCCCCCOc1ccc(/C=C2\CC/C(=C\c3ccc(OCCCCCCOP(=O)(O*)OC)c(OC)c3)C2=O)cc1OC` (repeat unit) it is 74.00 °C; for `*CCCCOc1ccc(/C=C2\CC/C(=C\c3ccc(OCCCCOP(=O)(O*)OC)c(OC)c3)C2=O)cc1OC` (repeat unit) it is 75.00 °C.
The value for `*CCOC(=O)/C=C/C(=O)NCCCCCCNC(=O)/C=C/C(=O)O*` (repeat unit) was 89.00 °C; that for `*CCOC(=O)/C=C/C(=O)O*` (repeat unit) was -10.00 °C.
The figure for `*CCOCCOC(=O)/C=C/C(=O)NCCCCCCNC(=O)/C=C/C(=O)O*` (repeat unit) is 76.00 °C; for `*Oc1ccc(/C(=C/c2cc(OC)c(/C=C(/c3ccc(*)cc3)c3ccc(C(F)(F)F)cc3)cc2OC)c2ccc(C(F)(F)F)cc2)cc1` (repeat unit) it is 194.00 °C; for `*Oc1ccc(/C=C2\CCC/C(=C\c3ccc(OC(=O)c4cccc(C(*)=O)c4)c(OC)c3)C2=O)cc1OC` (repeat unit) it is 57.86 °C.
For the molecule `*c1ccc(C2(c3ccc(N4C(=O)C(c5ccccc5)=C(c5ccc(C6=C(c7ccccc7)C(=O)N(*)C6=O)cc5)C4=O)cc3)c3ccccc3-c3ccccc32)cc1` (repeat unit), the glass transition temperature was found to be 340.00 °C.
In turn, `*c1ccc(N2C(=O)CC(C3C=C(C)C4C(=O)N(*)C(=O)C4C3)C2=O)cc1` (repeat unit) had a glass transition temperature of 327.00 °C.
In the case of `*c1ccc(Oc2ccc(N3C(=O)C4CCC(C5CCC6C(=O)N(*)C(=O)C6C5)CC4C3=O)cc2)cc1` (repeat unit), the glass transition temperature amounted to 257.00 °C.
The value for `*c1ccc(Oc2ccc(N3C(=O)CC(C4C=C(C)C5C(=O)N(*)C(=O)C5C4)C3=O)cc2)cc1` (repeat unit) was 278.00 °C.
The figure for `*c1ccc(Oc2ccc(Oc3ccc(N4C(=O)C(c5ccccc5)=C(c5ccc(C6=C(c7ccccc7)C(=O)N(*)C6=O)cc5)C4=O)cc3)cc2)cc1` (repeat unit) is 267.00 °C; for `*c1ccc(Oc2ccc(S(=O)(=O)c3ccc(Oc4ccc(N5C(=O)C6CCC(C7CCC8C(=O)N(*)C(=O)C8C7)CC6C5=O)cc4)cc3)cc2)cc1` (repeat unit) it is 256.50 °C.
